# Data as given in patent publication US10842785B2, “PIM kinase inhibitors in combination with RNA splicing modulators/inhibitors for treatment of cancers” (UNIVERSITY OF MARYLAND, BALTIMORE COUNTY, priority 2016, dated 2020).
# How the values were obtained:
# Format in all cases: cell-based
# CHAC1, NFYA and Cog5 = assay: RT-PCR for splice variants of CHAC1, NFYA and Cog5 in MOLM16 cells; conditions: MOLM16, 1 μM, 6 hrs
# Description: (§1) Control=DMSO treated. […] Arrow indicate bands that change after AZD1208 treatment.
# (§2) A few targets from the microarray data were chosen, that being, ones that were affected by PIM kinase inhibition. The procedure was manual curation of data, followed by reference seq analysis of splice variants to determine avalibilty of sequence information. Initially, changes in splice variants of a known apoptotic regulator, MCL1 were validated. The smaller isoform of MCL1 is pro-apototic, while the longer isoform has anti-apototic functions.
# [1] = test system: SR protein phosphorylation; assay: Western blot using phospho-SR protein antibody; conditions: MOLM16 and EOL1 cells, versus DMSO treated controls
# Procedure: MOLM16 and EOL1 cells were treated with AZD1208 or SRPIN340 for indicated concentration and time. Cells lysates from treated cells were used for western blot analysis.
# Phosphorylation of splicing factors is known to play a role in regulation of splicing. Phosphorylation of splicing factors called serine arginine rich proteins (SR proteins) is known to regulate their function and localization. Serine arginine rich protein kinases (SRPK1 and SRPK2) phosphorylate these proteins and inhibition of SRPK activity using the small molecule modulator SRPIN340 leads to reduction in phosphorylation. The level of SR protein phosphorylation can be visualized using phospho-SR protein antibody. It was investigated to determine if PIM kinases regulate SRPK activity to indirectly lead to changes in splicing. […] Thus, it was concluded that the SRPK activity was not affected by PIM kinase inhibition.
# MCL1 splice variants [2] = assay: Taqman qRT-PCR for MCL1 splice variants in OCI-M1 cells; conditions: 1 μM, 6 hrs
# Description: as §1, §2
# EOL1 cells [3] = assay: MTT assay (number of live cells), EOL1 cells, single inhibitors and combination, Compusyn CI; conditions: 48 hours
# Procedure: (§3) General experimental procedure: 10,000 (MOLM16) or 20,000 (EOL1) cells were seeded per well in 96-well plates. After culturing overnight, AZD1208 and/or Pladienolide B/SRPIN340 were added to wells in quadruplicates at 5 different concentrations. Different ratios between AZD1208 and Pladienolide B were tried in MOLM16 and EOL1 cells. At 48 hours the MTT metabolism indicative of number of live cells was measured by MTT assay (Promega, Cat: G4000). The resulting values were used to evaluate the Fa (fraction affected) values, which were plugged into the Compusyn software to calculate the combination indices (CI values) at ED50, ED75, ED90 and ED95 (ED—Effective dose of combination).
# To further confirm the finding in MOLM16 cells, it was tested whether the combination of AZD1208 and Pladienolide B is synergistic in another AML cell line—EOL1. Different ratios between AZD1208 and Pladienolide B were tested to identify the ideal ratio that provides maximum synergy.
# MOLM16 cells [4] = assay: Microarray (Affymetrix HTA 2.0) profiling of alternative splicing changes in MOLM16 cells; conditions: MOLM16, 1 μM, 6 hours
# Procedure: Due to the large number of splicing factors as PIM substrates, a more globally spread regulation of splicing by PIM kinases was envisioned. As such, a microarray approach was chosen to profile the entire transcriptome for changes in alternative splicing, due to inhibition of PIM kinase activity. MOLM16 cells were treated with DMSO/AZD1208 (1 μM) (pan-PIM inhibitor) for 6 hours. This experiment was performed in triplicates and RNA was run on a bioanalyzer to confirm sample intergrity, as outline in FIG. 3. A similar procedure was used for analysis of both MOLM16 and EOL1 cells. After 1 μM AZD1208 treatment for 6 hours, cells were harvested, and total RNA was isolated. The RNA quality was confirmed using a bio-analyzer. High quality RNA samples were further processed and hybridized to Affymetrix HTA 2.0 microarrays. The results obtained were processed using Affymetrix expression console and transcriptome analysis console (TAC) software. […] Similar experiment was also performed for EOL1 cells. […] Each point represents a unique probe selection region and the splicing index values for MOLM16 (X axis) and EOL1 cells (Y axis) are shown. All the points in +X+Y and −X−Y quadrants are splicing changes consistent with directionality of the change. […] Microsoft Excel functions were used to identify the overlap between these lists of splicing changes. […]
# EOL1 cells [5] = assay: Microarray (Affymetrix HTA 2.0) profiling of alternative splicing changes in EOL1 cells
# Procedure: Due to the large number of splicing factors as PIM substrates, a more globally spread regulation of splicing by PIM kinases was envisioned. As such, a microarray approach was chosen to profile the entire transcriptome for changes in alternative splicing, due to inhibition of PIM kinase activity. MOLM16 cells were treated with DMSO/AZD1208 (1 μM) (pan-PIM inhibitor) for 6 hours. This experiment was performed in triplicates and RNA was run on a bioanalyzer to confirm sample intergrity, as outline in FIG. 3. A similar procedure was used for analysis of both MOLM16 and EOL1 cells. After 1 μM AZD1208 treatment for 6 hours, cells were harvested, and total RNA was isolated. The RNA quality was confirmed using a bio-analyzer. High quality RNA samples were further processed and hybridized to Affymetrix HTA 2.0 microarrays. The results obtained were processed using Affymetrix expression console and transcriptome analysis console (TAC) software. […] Similar experiment was also performed for EOL1 cells. […] Each point represents a unique probe selection region and the splicing index values for MOLM16 (X axis) and EOL1 cells (Y axis) are shown. All the points in +X+Y and −X−Y quadrants are splicing changes consistent with directionality of the change. […] Microsoft Excel functions were used to identify the overlap between these lists of splicing changes. […] When the directionality of these changes was considered, it was noted that most of these changes were also consistantly in the same direction (all but 39 out of 2599).
# MCL1 splice variants [6] = assay: Taqman qRT-PCR for MCL1 splice variants in MOLM16 cells; conditions: MOLM16, 1 μM, 6 hrs
# Description: as §1, §2
# MOLM16 cells [7] = assay: MTT assay (number of live cells), MOLM16 cells, single inhibitors and combination, Compusyn CI; conditions: 48 hours
# Procedure: as §3
# These values of drug dose and effect (fraction of cells affected by the treatment—FA values) were input into the Compusyn software to estimate the interaction between the two drugs.
structure (smiles),measurement,setting,value
"N[C@@H]1CCCN(c2c(/C=C3/SC(=O)NC3=O)cccc2-c2ccccc2)C1 [AZD1208, (5E)-5-[[2-[(3R)-3-aminopiperidin-1-yl]-3-phenylphenyl]methylidene]-1,3-thiazolidine-2,4-dione]","changes in splice variants of CHAC1, NFYA and Cog5","CHAC1, NFYA and Cog5",in agreement with the microarray data
same,SR protein phosphorylation,[1],does not change SR protein phosphorylation
same,level of both MCL1 splice variants,MCL1 splice variants [2],did not show any change
same,"Effect (fraction of cells affected, FA)","EOL1 cells [3]; EOL1, Trial 1, 0.024 μM",0.395
same,"Effect (fraction of cells affected, FA)","EOL1 cells [3]; EOL1, Trial 1, 0.048 μM",0.529
same,"Effect (fraction of cells affected, FA)","EOL1 cells [3]; EOL1, Trial 1, 0.072 μM",0.675
same,"Effect (fraction of cells affected, FA)","EOL1 cells [3]; EOL1, Trial 1, 0.096 μM",0.684
same,"Effect (fraction of cells affected, FA)","EOL1 cells [3]; EOL1, Trial 1, 0.12 μM",0.680
same,"Effect (fraction of cells affected, FA)","EOL1 cells [3]; EOL1, Trial 2, 0.024 μM",0.432
same,"Effect (fraction of cells affected, FA)","EOL1 cells [3]; EOL1, Trial 2, 0.048 μM",0.587
same,"Effect (fraction of cells affected, FA)","EOL1 cells [3]; EOL1, Trial 2, 0.072 μM",0.650
same,"Effect (fraction of cells affected, FA)","EOL1 cells [3]; EOL1, Trial 2, 0.096 μM",0.683
same,"Effect (fraction of cells affected, FA)","EOL1 cells [3]; EOL1, Trial 2, 0.12 μM",0.698
same,"Effect (fraction of cells affected, FA)","EOL1 cells [3]; EOL1, Trial 3, 0.024 μM",0.373
same,"Effect (fraction of cells affected, FA)","EOL1 cells [3]; EOL1, Trial 3, 0.048 μM",0.523
same,"Effect (fraction of cells affected, FA)","EOL1 cells [3]; EOL1, Trial 3, 0.072 μM",0.600
same,"Effect (fraction of cells affected, FA)","EOL1 cells [3]; EOL1, Trial 3, 0.096 μM",0.633
same,"Effect (fraction of cells affected, FA)","EOL1 cells [3]; EOL1, Trial 3, 0.12 μM",0.642
same,gene products with changes in splicing indices,MOLM16 cells [4],> 5000
same,splicing events with changes in splicing indices,MOLM16 cells [4],"> 10,000"
same,changes in splicing after PIM kinase inhibition,"EOL1 cells [5]; EOL1, 1 μM, 6 hrs.",widespread changes were observed in splicing
same,overlapping splicing changes not in the same direction,"EOL1 cells [5]; out of 2599 changes shared by MOLM16 and EOL1, 1 μM, 6 hours",39
same,splicing changes observed in similar probe selection regions,"EOL1 cells [5]; overlap between MOLM16 and EOL1 lists, 1 μM, 6 hours",2599
same,level of shorter isoform of MCL1,MCL1 splice variants [6],specifically and significantly reduces
same,"Effect (fraction of cells affected, FA)","MOLM16 cells [7]; MOLM16, SRPIN340 testing Trial 1, 0.03 μM",0.396
same,"Effect (fraction of cells affected, FA)","MOLM16 cells [7]; MOLM16, SRPIN340 testing Trial 1, 0.06 μM",0.521
same,"Effect (fraction of cells affected, FA)","MOLM16 cells [7]; MOLM16, SRPIN340 testing Trial 1, 0.12 μM",0.628
same,"Effect (fraction of cells affected, FA)","MOLM16 cells [7]; MOLM16, Trial 1, 0.024 μM",0.415
same,"Effect (fraction of cells affected, FA)","MOLM16 cells [7]; MOLM16, Trial 1, 0.048 μM",0.471
same,"Effect (fraction of cells affected, FA)","MOLM16 cells [7]; MOLM16, Trial 1, 0.072 μM",0.564
same,"Effect (fraction of cells affected, FA)","MOLM16 cells [7]; MOLM16, Trial 1, 0.096 μM",0.594
same,"Effect (fraction of cells affected, FA)","MOLM16 cells [7]; MOLM16, Trial 1, 0.12 μM",0.614
same,"Effect (fraction of cells affected, FA)","MOLM16 cells [7]; MOLM16, Trial 2, 0.024 μM",0.337
same,"Effect (fraction of cells affected, FA)","MOLM16 cells [7]; MOLM16, Trial 2, 0.048 μM",0.478
same,"Effect (fraction of cells affected, FA)","MOLM16 cells [7]; MOLM16, Trial 2, 0.072 μM",0.534
same,"Effect (fraction of cells affected, FA)","MOLM16 cells [7]; MOLM16, Trial 2, 0.096 μM",0.566
same,"Effect (fraction of cells affected, FA)","MOLM16 cells [7]; MOLM16, Trial 2, 0.12 μM",0.622
same,"Effect (fraction of cells affected, FA)","MOLM16 cells [7]; MOLM16, Trial 3, 0.024 μM",0.344
same,"Effect (fraction of cells affected, FA)","MOLM16 cells [7]; MOLM16, Trial 3, 0.048 μM",0.455
same,"Effect (fraction of cells affected, FA)","MOLM16 cells [7]; MOLM16, Trial 3, 0.072 μM",0.524
same,"Effect (fraction of cells affected, FA)","MOLM16 cells [7]; MOLM16, Trial 3, 0.096 μM",0.554
same,"Effect (fraction of cells affected, FA)","MOLM16 cells [7]; MOLM16, Trial 3, 0.12 μM",0.606
